The results in this text go back to patent US20130345164A1, “TREATMENTS FOR CELLULAR PROLIFERATIVE DISORDERS AND IDENTIFICATION THEREOF” (UNIVERSITY OF MEDICINE AND DENTISTRY OF NEW JERSEY, priority 2010, published 2013).

Data set [1] deals with murine fibroblast cell line 3T3 (p53 wild type control). Briefly: Growth inhibition assay on isogenic murine fibroblast lines (96-well MTS). The format is cell-based. Conditions: FIG. 5c. The procedure: (§1) None of these compounds have been previously reported for their selective activity in cells with a mutant p53. To provide further evidence for their specificity, growth inhibition assays were performed on isogenic cell lines. Previously developed murine fibroblast cell line (10)3 (p53 null) and 10(3) with transfection of cytomegalovirus-human mutant p53 constructs (273, 248 and 175) (Dittmer, D., et al., Nature Genetics, 1993. 4(1): p. 42-6) were used as cases, while the murine fibroblast cell line 3T3 was used as a p53 wild type control.
(§2) The compounds were validated using several different cell line systems. The first system used was a mouse embryonic fibroblast (MEF) system in which a p53 null MEF line, 10(3), was used as a parental line from which several stable CMV-mutant p53 transfectants were derived. The p53 mutations investigated were the “hot spot” mutants 175, 248, and 273. NIH3T3 fibroblasts were used as a p53 wild type control.

For data set [2], the system named is murine fibroblast cell line (10)3 (p53 null). The data set is described as above. Format: cell-based. Conditions: p53^null cells. The procedure:
as §1, §2

For data set [3], the system named is 10(3) cells with human mutant p53 construct 175. The data set is described as above. Format: cell-based. The procedure:
as §1, §2

The test system of data set [4] is 10(3) cells with human mutant p53 construct 248. The data set is described as above. Format: cell-based. The conditions noted are these: cells with mutation p53^248. The procedure:
as §1, §2

For data set [5], the system named is 10(3) cells with human mutant p53 construct 273. The data set is described as above. The conditions noted are these: cells with mutation p53^273. The format is cell-based. The procedure:
as §1, §2

A further data set deals with p21 protein. Briefly: Western Blot of p21 protein levels. Format: cell-based, human. The conditions noted are these: TOV112D (p53R175H). (In western blotting, separated proteins are transferred to a membrane and probed.)
The next data set relates to TOV112D cells. Description: Growth inhibition after silencing of p53 by siRNA. Format: cell-based, human. Conditions: p53^R175H silenced by siRNA. From the text:
(§3) In contrast, the sensitivity of the p53 null cell line (SKOV3) was not reduced by the siRNA in a similar fashion.

For data set [6], the system named is p53 null cell line (SKOV3). Briefly: Growth inhibition after silencing of p53 by siRNA. The format is cell-based, human.
From the text: as §3

Data set [7] can be described thus: Toxicity assays in p53 wild type, p53 null and p53^R172H mice. The format is in vivo. The conditions noted are these: for survival by day 4: 10 mg/kg intraperitoneally daily; for survival by day seven: 5 mg/kg. The protocol:
Toxicity assays were performed in p53 wild type, p53 null, and p53^R172H mice to determine if in vivo p53 mutant synthetic lethality could be detected.
First, three groups of mice: […], p53^+/R172H/R172H mice, were compared.
Next, the dose was lowered to 5 mg/kg and three groups of mice (p53 wild type, p53 null, and p53^R172H/R172H) were compared.

Data set [8] has as its system H460-p53 wildtype, MDAMB468-p53^R273H, HCT116-p53 null and TOV112D-p53^R175H xenograft tumors. Description: Mouse xenograft tumor growth. The format is in vivo. The conditions noted are these: 1 μg/g intravenously once daily vs control.
Data set [9] relates to p53 targets (p21, PUMA, and MDM2). Briefly: Quantitative real-time PCR of p53 targets. The format is cell-based, human. Conditions: TOV112D cells, treated vs untreated, normalized with actin. The protocol:
Each treatment had three independent repeats (labeled as 1, 2, and 3); (e) Comparison of the p53 expression signatures of 319726 treated cells with that of p53 wild type, p53 null and p53R175H cell lines in response to gamma-irradiation.
Assays were carried out to compare the mRNA levels of several p53 targets (p21, PUMA, and MDM2) in the TOV112D (p53R175H), OVCAR3 (p53R248W) and SKOV3 (p53 null) upon treatment with the compounds. The relative gene expression level was normalized with the actin and the ratio of the treated level vs. untreated level was shown for each cell line.
For orientation: In qPCR the cycle at which signal appears reflects the starting amount.

Regarding `C/C(=N\NC(=S)N1CCC1)c1ccccn1` [NSC319726], the concentration for half-maximal inhibition (IC50) entry is “not even reached” in [1]; approximately 0.1 µM in data set [2]; 0.008 µM in [3] (175 mutant, FIG. 5c); approximately 0.01 µM in [3] (cells carrying the p53^173 mutation (so in the source)); approximately 0.1 µM in [4]; approximately 0.1 µM in data set [5]. Also, the “p21 induction (Western blot)” value with p21 protein is recorded as “induced p21”. Also, the entries for the “change of sensitivity on p53 siRNA” value (with TOV112D cells; in data set [6]) were “reduced by four-fold” and “not reduced”, respectively. In addition, the “mice alive by day seven” value in data set [7] (mouse, in vivo, ip, 10 mg/kg) is “approximately 40%”. The “survival by day 4” value in [7] (p53^+/R172H mice) came out at 30%; in data set [7] (p53 wild type mice), 70%. Further, the “survival by day seven” value in [7] (p53^R172H/R172H mice) was found to be 30%; in data set [7] (p53 null mice), 100%; in data set [7] (p53 wild type mice), 100%. Besides, the “xenograft tumor growth inhibition” value in data set [8] is “inhibited mouse xenograft tumor growth in an allele specific mutant p53 dependent manner”. In addition, in data set [9], the “induction of mRNA of p53 targets p21, PUMA, MDM2” value is listed as “induced all three targets”.

The term IC50 denotes the concentration needed to halve the response being measured.
